Data taken from ChEMBL document CHEMBL1201862, “PubChem BioAssay data set” (2004).
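A five-concentration, 48-hour dose response in 96-well plates underlies each endpoint, interpolated linearly between surrounding concentrations. GI50 marks 50% less growth.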 Calls of active or inactive are those of the source. Rule as the data show it: active = GI50 up to about 1.1 µM and inactive = higher.

Assays:
Assay in all cases: inhibition of tumour cell growth, NCI panel, 48 h
T47D = system: T47D
IGROV-1 = system: IGROV-1
HT-29 = system: HT-29
SR = system: SR
UACC-62 = system: UACC-62
SK-MEL-2 = system: SK-MEL-2
OVCAR-4 = system: OVCAR-4
HL-60 = system: HL-60
OVCAR-5 = system: OVCAR-5
HCT-116 = system: HCT-116
OVCAR-3 = system: OVCAR-3
OVCAR-8 = system: OVCAR-8
ACHN = system: ACHN
NCI-H23 = system: NCI-H23
SNB-19 = system: SNB-19
NCI/ADR-RES = system: NCI/ADR-RES
MCF7 = system: MCF7
SK-OV-3 = system: SK-OV-3
Hs-578T = system: Hs-578T
LOX IMVI = system: LOX IMVI

Compound | GI50 (T47D) | GI50 (IGROV-1) | GI50 (HT-29) | GI50 (SR) | GI50 (UACC-62) | GI50 (SK-MEL-2) | GI50 (OVCAR-4) | GI50 (HL-60) | GI50 (OVCAR-5) | GI50 (HCT-116) | GI50 (OVCAR-3) | GI50 (OVCAR-8) | GI50 (ACHN) | GI50 (NCI-H23) | GI50 (SNB-19) | GI50 (NCI/ADR-RES) | GI50 (MCF7) | GI50 (SK-OV-3) | GI50 (Hs-578T) | GI50 (LOX IMVI)
Cc1c(NC(=O)Nc2c(Cl)cccc2Cl)c(=O)n(-c2ccccc2)n1C | > 100 µM (inactive) | > 100 µM (inactive) | > 100 µM (inactive) | > 100 µM (inactive) | > 100 µM (inactive) | > 100 µM (inactive) | > 100 µM (inactive) | > 100 µM (inactive) | > 100 µM (inactive) | > 100 µM (inactive) | > 100 µM (inactive) | > 100 µM (inactive) | > 100 µM (inactive) | > 100 µM (inactive) | > 100 µM (inactive) | > 100 µM (inactive) | > 100 µM (inactive) | > 100 µM (inactive) | > 100 µM (inactive) | > 100 µM (inactive)
CCN(CC)c1ccc2cc(-c3nnc(-c4ccccc4)o3)c(=O)oc2c1 | 23.4 µM (inactive) | 28.9 µM (inactive) | 25.4 µM (inactive) | 6.64 µM (inactive) | 36.6 µM (inactive) | 19.9 µM (inactive) | 39.4 µM (inactive) | 16.6 µM (inactive) | 56.2 µM (inactive) | 19.9 µM (inactive) | 7.05 µM (inactive) | 28.1 µM (inactive) | 18.2 µM (inactive) | 56.9 µM (inactive) | 25.9 µM (inactive) | 7.67 µM (inactive) | 22.5 µM (inactive) | 14.7 µM (inactive) | > 84.9 µM (inactive) | 29.6 µM (inactive)
C=CCN1C(N)=C(C#N)C(C#N)(C#N)C1CCC (stereo not given) | 54.8 µM (inactive) | > 100 µM (inactive) | > 100 µM (inactive) | > 100 µM (inactive) | > 100 µM (inactive) | > 100 µM (inactive) | > 100 µM (inactive) | > 100 µM (inactive) | > 100 µM (inactive) | > 100 µM (inactive) | > 100 µM (inactive) | > 100 µM (inactive) | > 100 µM (inactive) | > 100 µM (inactive) | > 100 µM (inactive) | > 100 µM (inactive) | > 100 µM (inactive) | > 100 µM (inactive) | > 100 µM (inactive) | > 100 µM (inactive)
CSc1ncc2c(n1)-c1ccccc1OC2 | 15.9 µM (inactive) | 34.4 µM (inactive) | 40.4 µM (inactive) | 61 µM (inactive) | 78.2 µM (inactive) | > 100 µM (inactive) | 61 µM (inactive) | 38.9 µM (inactive) | > 100 µM (inactive) | 70.8 µM (inactive) | 27.9 µM (inactive) | 79.1 µM (inactive) | 45.9 µM (inactive) | 84.3 µM (inactive) | 75.9 µM (inactive) | 71.3 µM (inactive) | 43.1 µM (inactive) | > 100 µM (inactive) | 26.5 µM (inactive) | 37.7 µM (inactive)
COc1c2c(cc3c1C(O)N1CC[C@]34[C@H]3O[C@H]3[C@H](OC)C[C@@H]14)OCO2 (stereo not given in full) | > 100 µM (inactive) | 64.9 µM (inactive) | 42.8 µM (inactive) | 21.9 µM (inactive) | 39.3 µM (inactive) | 26.4 µM (inactive) | > 100 µM (inactive) | 1.18 µM (inactive) | > 100 µM (inactive) | 75 µM (inactive) | 16.4 µM (inactive) | > 100 µM (inactive) | > 100 µM (inactive) | > 100 µM (inactive) | > 100 µM (inactive) | > 100 µM (inactive) | 35 µM (inactive) | 24.2 µM (inactive) | > 100 µM (inactive) | 71.4 µM (inactive)
COC(=O)C1=C(C(=O)OC)SC2(S1)C(C(=O)OC)=C(C(=O)OC)Sc1c2ss/c1=N/C(C)(C)C | 1.41 µM (inactive) | 1.4 µM (inactive) | 1.17 µM (inactive) | 0.366 µM (active) | 1.56 µM (inactive) | 1.34 µM (inactive) | 1.79 µM (inactive) | 0.753 µM (active) | 1.87 µM (inactive) | 0.769 µM (active) | 1.67 µM (inactive) | 1.71 µM (inactive) | 1.74 µM (inactive) | 2.23 µM (inactive) | 2.13 µM (inactive) | 2.5 µM (inactive) | 1.26 µM (inactive) | 5.18 µM (inactive) | 4.32 µM (inactive) | 1.04 µM (active)
COc1ccc(Nc2nc3ccccc3nc2C(=O)O)cc1 | 53.6 µM (inactive) | 87.9 µM (inactive) | > 100 µM (inactive) | 48.6 µM (inactive) | > 100 µM (inactive) | > 100 µM (inactive) | > 100 µM (inactive) | 63.8 µM (inactive) | > 100 µM (inactive) | 58.6 µM (inactive) | 65.9 µM (inactive) | 71.3 µM (inactive) | 55 µM (inactive) | 66.7 µM (inactive) | > 100 µM (inactive) | 38.9 µM (inactive) | > 100 µM (inactive) | 9.04 µM (inactive) | 16 µM (inactive) | 60.1 µM (inactive)
O=C(O)c1ccccc1CC1Cc2ccc3c(c2C1=O)CCC3 (stereo not given) | > 100 µM (inactive) | > 100 µM (inactive) | > 100 µM (inactive) | > 100 µM (inactive) | > 100 µM (inactive) | > 100 µM (inactive) | > 100 µM (inactive) | > 100 µM (inactive) | > 100 µM (inactive) | > 100 µM (inactive) | > 100 µM (inactive) | > 100 µM (inactive) | > 100 µM (inactive) | > 100 µM (inactive) | > 100 µM (inactive) | > 100 µM (inactive) | > 100 µM (inactive) | > 100 µM (inactive) | > 100 µM (inactive) | > 100 µM (inactive)
Nc1ccn(C2CC3OCC3O2)c(=O)n1 (stereo not given) | > 100 µM (inactive) | > 100 µM (inactive) | > 100 µM (inactive) | > 100 µM (inactive) | > 100 µM (inactive) | > 100 µM (inactive) | > 100 µM (inactive) | > 100 µM (inactive) | > 100 µM (inactive) | > 100 µM (inactive) | > 100 µM (inactive) | > 100 µM (inactive) | > 100 µM (inactive) | > 100 µM (inactive) | > 100 µM (inactive) | > 100 µM (inactive) | > 100 µM (inactive) | > 100 µM (inactive) | > 100 µM (inactive) | > 100 µM (inactive)
Nc1ccc(-c2nc3cc(F)ccc3s2)cc1 | 0.424 µM (active) | 13 µM (inactive) | > 91 µM (inactive) | 5.96 µM (inactive) | 28.6 µM (inactive) | 30.8 µM (inactive) | > 36.7 µM (inactive) | 25.4 µM (inactive) | 26.4 µM (inactive) | > 69.8 µM (inactive) | > 90.2 µM (inactive) | > 95.9 µM (inactive) | 20.6 µM (inactive) | 1.43 µM (inactive) | > 100 µM (inactive) | > 100 µM (inactive) | < 0.01 µM (active) | > 94.2 µM (inactive) | 37.7 µM (inactive) | 45.1 µM (inactive)
